Source: patent US20260022142A1, “MACROCYCLIC IMMUNOMODULATORS” (Bristol-Myers Squibb Company, priority 2022, published 2026)
Bridge positions count the residues as written; N and C are the ends. Square brackets hold non-standard residues; d marks the D form. Peptide text beside a SMILES is read from it. * marks the point of attachment. Phe(4-CH2CH2COOH) = N[C@@H](Cc1ccc(CCC(=O)O)cc1)C(=O)O; Bip = N[C@@H](Cc1ccc(-c2ccccc2)cc1)C(=O)O; Phe(3-Me) = Cc1cccc(C[C@H](N)C(=O)O)c1; Cha = N[C@@H](CC1CCCCC1)C(=O)O; Cit = NC(=O)NCCC[C@H](N)C(=O)O; Carboxymethyl = O=C(O)C*; Orn = NCCC[C@H](N)C(=O)O; Aun = NCCCCCCCCCCC(=O)O; Dab = NCC[C@H](N)C(=O)O

Biological target: T1, PD-1/PD-L1 interaction (PE-labeled human PD-L1-Ig binding to Jurkat cell line over-expressing human PD-1) (Homo sapiens, UniProt Q15116)
T1 construct: expressed in transfected cells; host or cells: Jurkat
Assay: Jurkat-PD-1 Cell Binding High-Content Screening Assay (CBA)
Type: cell-based
Details: Jurkat cell line over-expressing human PD-1; PE-labeled PD-L1-Ig 20 nM final; read-out: Jurkat hPD1-PDL1 IC50
Method in brief: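 Binding of fluorescent PD-L1-Ig (20 nM final) to Jurkat-PD-1 cells was measured by automated imaging after 1 h, following a 2 h compound pre-treatment at 37° C.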

T1 sequence (Q15116 25-288): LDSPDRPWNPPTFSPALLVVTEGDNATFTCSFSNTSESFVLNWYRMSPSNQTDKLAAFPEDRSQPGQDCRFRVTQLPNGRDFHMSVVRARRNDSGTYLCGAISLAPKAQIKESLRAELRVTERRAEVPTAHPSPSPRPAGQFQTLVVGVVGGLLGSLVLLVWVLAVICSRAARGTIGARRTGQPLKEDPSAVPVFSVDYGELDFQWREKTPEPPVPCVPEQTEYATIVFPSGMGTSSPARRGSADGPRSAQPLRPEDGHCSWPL

Row | Compound | IC50 [nM]
1 | Cc1cccc(C[C@@H]2NC(=O)[C@H](CC(=O)O)NC(=O)[C@H](Cc3ccc(CCC(=O)O)cc3)NC(=O)[C@H](CCCNC(=N)N)NC(=O)CSC[C@@H](C(=O)N[C@@H](CCCN)C(=O)N[C@@H](CO)C(=O)NCCCCCCCCCCC(=O)O)NC(=O)[C@H](CCC(=O)O)NC(=O)[C@H](C(C)C)NC(=O)[C@H](CC3CCCCC3)NC(=O)[C@H](CCN)NC(=O)[C@@H](CC(C)C)NC(=O)[C@H](CCN)NC(=O)[C@H](CCCNC(N)=O)NC(=O)[C@H](Cc3ccc(-c4ccccc4)cc3)NC(=O)[C@H](C(C)C)NC2=O)c1 [Compound 2814] ({CH2CO}-R[Phe(4-CH2CH2COOH)]D[Phe(3-Me)]V[Bip][Cit][Dab][dL][Dab][Cha]VEC[Orn]S[Aun]-OH; thioether N-14) | 23.6
2 | CC(C)C[C@H]1NC(=O)[C@H](CCN)NC(=O)[C@H](CCCNC(N)=O)NC(=O)[C@H](Cc2ccc(-c3ccccc3)cc2)NC(=O)[C@H](C(C)C)NC(=O)[C@H](Cc2c[nH]c3ccccc23)NC(=O)[C@H](CC(=O)O)NC(=O)[C@H](Cc2ccc(OCC(=O)O)cc2)NC(=O)[C@H](CCCNC(=N)N)NC(=O)CSC[C@@H](C(=O)N[C@@H](CCCN)C(=O)NCCCCCCCCCCC(=O)O)NC(=O)[C@@H](CCC(N)=O)NC(=O)[C@H](C(C)C)NC(=O)[C@H](CC2CCCCC2)NC(=O)[C@H](CCN)NC1=O [Compound 2816] ({CH2CO}-RY(Carboxymethyl)DWV[Bip][Cit][Dab][dL][Dab][Cha]V[dQ]C[Orn][Aun]-OH; thioether N-14) | 74.9
3 | CC(C)C[C@H]1NC(=O)[C@H](CCN)NC(=O)[C@H](Cc2ccc(O)cc2)NC(=O)[C@H](Cc2ccc(-c3ccccc3)cc2)NC(=O)[C@H](C(C)C)NC(=O)[C@H](Cc2c[nH]c3ccccc23)NC(=O)[C@H](CC(=O)O)NC(=O)[C@H](Cc2ccc(OCC(=O)O)cc2)NC(=O)[C@H](CCCNC(=N)N)NC(=O)CSC[C@@H](C(=O)N[C@@H](CCCN)C(=O)NCCCCCCCCCCC(=O)O)NC(=O)[C@@H](CCC(N)=O)NC(=O)[C@H](C(C)C)NC(=O)[C@H](CC2CCCCC2)NC(=O)[C@H](CCN)NC1=O [Compound 2817] ({CH2CO}-RY(Carboxymethyl)DWV[Bip]Y[Dab][dL][Dab][Cha]V[dQ]C[Orn][Aun]-OH; thioether N-14) | 47.1
4 | Cc1cccc(C[C@@H]2NC(=O)[C@H](CC(=O)O)NC(=O)[C@H](Cc3ccc(OCC(=O)O)cc3)NC(=O)[C@H](CCCNC(=N)N)NC(=O)CSC[C@@H](C(=O)N[C@@H](CCN)C(=O)NCCCCCCCCCCC(=O)O)NC(=O)[C@H](CCC(=O)O)NC(=O)[C@H](C(C)C)NC(=O)[C@H](CC3CCCCC3)NC(=O)[C@H](CCN)NC(=O)[C@@H](CC(C)C)NC(=O)[C@H](CCN)NC(=O)[C@H](Cc3ccc(O)cc3)NC(=O)[C@H](Cc3ccc(-c4ccccc4)cc3)NC(=O)[C@H](C(C)C)NC2=O)c1 [Compound 2818] ({CH2CO}-RY(Carboxymethyl)D[Phe(3-Me)]V[Bip]Y[Dab][dL][Dab][Cha]VEC[Dab][Aun]-OH; thioether N-14) | 23.3
5 | Cc1cccc(C[C@@H]2NC(=O)[C@H](CC(=O)O)NC(=O)[C@H](Cc3ccc(OCC(=O)O)cc3)NC(=O)[C@H](CCCNC(=N)N)NC(=O)CSC[C@@H](C(=O)N[C@@H](CCCN)C(=O)NCCCCCCCCCCC(=O)O)NC(=O)[C@H](CCC(=O)O)NC(=O)[C@H](C(C)C)NC(=O)[C@H](CC3CCCCC3)NC(=O)[C@H](CCN)NC(=O)[C@@H](CC(C)C)NC(=O)[C@H](CCN)NC(=O)[C@H](Cc3ccc(O)cc3)NC(=O)[C@H](Cc3ccc(-c4ccccc4)cc3)NC(=O)[C@H](C(C)C)NC2=O)c1 [Compound 2819] ({CH2CO}-RY(Carboxymethyl)D[Phe(3-Me)]V[Bip]Y[Dab][dL][Dab][Cha]VEC[Orn][Aun]-OH; thioether N-14) | 21
